Laboratory results: US20230278984A1 (Global Blood Therapeutics, Inc., priority 2020, published 2023)

Molecular target: T1, Human pyruvate kinase R (PKR) (Homo sapiens, UniProt P30613)
T1 construct: Human pyruvate kinase R (PKR), residues 14-574; 6x-His (N, cleaved yes); 8x-Arg (N, cleaved yes); SUMO (N, cleaved yes); host or cells: E. coli
Assay: Biochemical assay for activation of pyruvate kinase R (Kinase-Glo luminescence measurement of ATP generation)
Details: for AC50: PKR biochemical assay, 0.1 nM PKR, 0.3 mM ADP, 2 mM FBP, 0.1 mM PEP; for Emax: maximal activation level relative to the activation level achieved by the literature compound AG-348 @ 10 μM
Experimental: Human pyruvate kinase R (PKR), residues 14-574, and human pyruvate kinase M2, residues 1-531, were cloned into expression plasmids and obtained from ATUM Bio (Newark, Calif.). Proteins were translated as fusions with 6×-His, 8×-Arg, and SUMO at the N-terminus. A third construct of human PKR was truncated, residues 50-574, and similarly cloned for use in crystallography experiments. All proteins were cloned, expressed in E. coli, and purified using similar protocols. Cells were grown at 30° C. in Luria-Bertani broth supplemented with 0.4% glucose to OD600=0.8 and induced with 0.4 mM IPTG at 16° C. for 18 hours. Cells were harvested by centrifugation, resuspended in 50 mM potassium phosphate pH 8.0, 500 mM NaCl, 25 mM imidazole pH 8.0, and 3 mM (3-mercaptoethanol. Cells were lysed using a LM20 microfluidizer from Microfluidics (Westwood, Mass.). The crude lysate was immediately supplemented with 0.2 mM phenylmethylsulfonyl fluoride (PMSF) and centrifuged at 20,000 g for 20 minutes. The soluble fraction was subsequently incubated with 2 mL Ni-NTA (GE Healthcare) per 1,000 ODs for 1 hour at 4° C. Following incubation with the Ni-NTA resin, lysate was removed by pelleting resin at 2,500 g for 3 minutes and washed 3 times with 9 bed volumes of 50 mM potassium phosphate pH 8.0, 500 mM NaCl, 25 mM imidazole, and 3 mM 3-mercaptoethanol. Following the batch wash Ni-NTA resin was loaded onto a gravity column and His-tagged protein was eluted with 6 bed volumes of 10 mM Tris/HCl pH 8.0, 200 mM NaCl, 500 mM imidazole, and 3 mM (3-mercaptoethanol. Eluted protein was dialyzed overnight against 10 mM Tris/HCl pH 8.0, 200 mM NaCl, and 1 mM DTT and the 6×-His-8×-Arg-SUMO-tag was cleaved using a 20:1 molar ratio of protein:3C protease. The protein was purified by anion exchange chromatography on a HiTrapQ or MonoQ 10/100 GL column (GE Healthcare) via a linear NaCl gradient and twice by size exclusion chromatography using a Superdex S200 26/60 column (GE Healthcare) run in 10 mM Tris/HCl pH 8.0, 200 mM NaCl, 10 mM MgCl2, 1 mM DTT. Proteins were concentrated to −12 mg/mL for crystallization and flash frozen for storage.
Biochemical Assay for Activation of Pyruvate Kinase R
Activation of pyruvate kinase R (PKR) and pyruvate kinase M2 (PKM2) were measured using a luminescence based measurement of ATP generation and the Kinase-Glo luminescent kinase reagent kit.

T1 sequence (P30613 14-574): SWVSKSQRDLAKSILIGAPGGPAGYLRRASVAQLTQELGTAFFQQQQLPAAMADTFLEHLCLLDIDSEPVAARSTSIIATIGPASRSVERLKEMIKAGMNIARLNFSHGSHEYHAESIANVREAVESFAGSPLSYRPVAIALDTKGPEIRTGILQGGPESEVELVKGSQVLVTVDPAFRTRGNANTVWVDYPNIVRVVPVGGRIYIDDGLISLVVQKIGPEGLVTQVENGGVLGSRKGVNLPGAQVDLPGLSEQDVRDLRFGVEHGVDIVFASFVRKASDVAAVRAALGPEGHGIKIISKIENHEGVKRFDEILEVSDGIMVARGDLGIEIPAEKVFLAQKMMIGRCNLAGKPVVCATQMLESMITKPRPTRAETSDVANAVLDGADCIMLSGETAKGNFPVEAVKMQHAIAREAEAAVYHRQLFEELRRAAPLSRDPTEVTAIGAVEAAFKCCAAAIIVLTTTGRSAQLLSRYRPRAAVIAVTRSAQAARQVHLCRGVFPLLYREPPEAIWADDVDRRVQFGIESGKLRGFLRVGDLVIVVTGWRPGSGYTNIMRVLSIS

Question: Which AC50 does the source give for `CCN(Cc1ncnn1-c1ccc(Cl)c(F)c1)C(=O)NCc1nc(C)nn1-c1cnc2ccccc2c1` [Compound 143, 1-{[1-(4-chloro-3-fluorophenyl)-1H-1,2,4-triazol-5-yl]methyl}-1-ethyl-3-{[3-methyl-1-(quinolin-3-yl)-1H-1,2,4-triazol-5-yl]methyl}urea] here?
Answer: 140 nM

Question: What about the Emax of the same compound?
Answer: 112%

Question: With `O=C(NCc1ncnn1-c1ccc2cccnc2c1)NCc1nnnn1-c1ccc(Cl)c(F)c1` [Compound 80, 1-{[1-(4-chloro-3-fluorophenyl)-1H-1,2,3,4-tetrazol-5-yl]methyl}-3-{[1-(quinolin-7-yl)-1H-1,2,4-triazol-5-yl]methyl}urea] as the compound, how does the AC50 read?
Answer: 200 nM

Question: What about the Emax of the same compound?
Answer: 106%

Question: How did the AC50 turn out when `Cc1cc(-n2nnnc2CNC(=O)NCc2nnnn2-c2ccc(F)c(C)c2)ccc1F` [Compound 62, 1,3-bis({[1-(4-fluoro-3-methylphenyl)-1H-1,2,3,4-tetrazol-5-yl]methyl})urea] was run?
Answer: 210 nM

Question: And the Emax?
Answer: 66%

Question: Which results are given for `CCN(Cc1ncnn1-c1ccc(Cl)c(F)c1)C(=O)NCc1nnnn1-c1ccc(Cl)c(F)c1` [Compound 36, 3-{[1-(4-chloro-3-fluorophenyl)-1H-1,2,3,4-tetrazol-5-yl]methyl}-1-{[1-(4-chloro-3-fluorophenyl)-1H-1,2,4-triazol-5-yl]methyl}-1-ethylurea]?
Answer: AC50: 130 nM; Emax: 95%

Question: For `Cc1nc(CNC(=O)NCc2ncnn2-c2cnc3cc(F)ccc3c2)n(-c2ccc(Cl)c(F)c2)n1` [Compound 135, 1-{[1-(4-chloro-3-fluorophenyl)-3-methyl-1H-1,2,4-triazol-5-yl]methyl}-3-{[1-(7-fluoroquinolin-3-yl)-1H-1,2,4-triazol-5-yl]methyl}urea], which AC50 is on record?
Answer: 86 nM

Question: And the Emax?
Answer: 117%

Question: What does the source list for `Cc1nc(CNC(=O)NCc2nc(C)nn2-c2cnc3ccccc3c2)n(-c2ccc(Cl)c(F)c2)n1` [Compound 138, 1-{[1-(4-chloro-3-fluorophenyl)-3-methyl-1H-1,2,4-triazol-5-yl]methyl}-3-{[3-methyl-1-(quinolin-3-yl)-1H-1,2,4-triazol-5-yl]methyl}urea]?
Answer: AC50: 44 nM; Emax: 129%

Question: Which AC50 does the source give for `O=C(NCc1ncnn1-c1cc(F)cc(Cl)c1)NCc1ncnn1-c1cc(F)cc(Cl)c1` [Compound 68, 1,3-bis({[1-(3-chloro-5-fluorophenyl)-1H-1,2,4-triazol-5-yl]methyl})urea] here?
Answer: 3100 nM

Question: What about the Emax of the same compound?
Answer: 65%

Question: Which AC50 does the source give for `O=C(NCc1ncnn1-c1ccc(O)nc1)NCc1ncnn1-c1ccc(Cl)c(F)c1` [Compound 119, 3-{[1-(4-chloro-3-fluorophenyl)-1H-1,2,4-triazol-5-yl]methyl}-1-{[1-(6-hydroxypyridin-3-yl)-1H-1,2,4-triazol-5-yl]methyl}urea] here?
Answer: 1100 nM

Question: What about the Emax of the same compound?
Answer: 31%

Question: How did the AC50 turn out when `O=C(NCc1ncnn1-c1ccc(Cl)nc1)NCc1ncnn1-c1ccc(Cl)nc1` [Compound 116, 1,3-bis({[1-(6-chloropyridin-3-yl)-1H-1,2,4-triazol-5-yl]methyl})urea] was run?
Answer: 89 nM

Question: And the Emax?
Answer: 39%

Question: With `O=C(NCc1ncnn1-c1ccc(Cl)c(F)c1)NCc1ncnn1-c1ccc2cccnc2c1` [Compound 75, 1-{[1-(4-chloro-3-fluorophenyl)-1H-1,2,4-triazol-5-yl]methyl}-3-{[1-(quinolin-7-yl)-1H-1,2,4-triazol-5-yl]methyl}urea] as the compound, how does the AC50 read?
Answer: 33 nM

Question: What about the Emax of the same compound?
Answer: 47%

Question: What does the source list for `COCCc1nc(CNC(=O)NCc2ncnn2-c2ccc3cccnc3c2)n(-c2ccc(Cl)c(F)c2)n1` [Compound 97, 1-{[1-(4-chloro-3-fluorophenyl)-3-(2-methoxyethyl)-1H-1,2,4-triazol-5-yl]methyl}-3-{[1-(quinolin-7-yl)-1H-1,2,4-triazol-5-yl]methyl}urea]?
Answer: AC50: 510 nM; Emax: 92%

Question: With `Cc1nc(CNC(=O)NCc2ncnn2-c2cc(F)c3ncccc3c2)n(-c2ccc(Cl)c(F)c2)n1` [Compound 102] as the compound, how does the AC50 read?
Answer: 35 nM

Question: What about the Emax of the same compound?
Answer: 71%

Question: `Cc1nc(CNC(=O)NCc2ncnn2CC2CCOCC2)n(-c2ccc(Cl)c(F)c2)n1` [Compound 10, 3-{[1-(4-chloro-3-fluorophenyl)-3-methyl-1H-1,2,4-triazol-5-yl]methyl}-1-({1-[(oxan-4-yl)methyl]-1H-1,2,4-triazol-5-yl}methyl)urea] was tested. Which AC50 did it give?
Answer: 80 nM

Question: And the Emax?
Answer: 74%

Question: `Cc1cc(-n2nnnc2CNC(=O)NCc2nnnn2-c2ccc(Cl)c(C)c2)ccc1Cl` [Compound 59, 1,3-bis({[1-(4-chloro-3-methylphenyl)-1H-1,2,3,4-tetrazol-5-yl]methyl})urea] was tested. Which AC50 did it give?
Answer: 1200 nM

Question: What about the Emax of the same compound?
Answer: 86%

Question: What does the source list for `Cc1nc(CNC(=O)NCc2ncnn2-c2cnc3cccnc3c2)n(-c2ccc(Cl)c(F)c2)n1` [Compound 43, 1-{[1-(4-chloro-3-fluorophenyl)-3-methyl-1H-1,2,4-triazol-5-yl]methyl}-3-{[1-(1,5-naphthyridin-3-yl)-1H-1,2,4-triazol-5-yl]methyl}urea]?
Answer: AC50: 100 nM; Emax: 84%

Question: For `O=C(NCc1ncnn1CC1CCOCC1)NCc1ncnn1-c1ccc(Cl)c(F)c1` [Compound 7, 3-{[1-(4-chloro-3-fluorophenyl)-1H-1,2,4-triazol-5-yl]methyl}-1-({1-[(oxan-4-yl)methyl]-1H-1,2,4-triazol-5-yl}methyl)urea], which AC50 is on record?
Answer: 44 nM

Question: And the Emax?
Answer: 46%

Question: Which results are given for `O=C(NCc1ncnn1-c1ccc(Cl)c(F)c1)NCc1nnnn1-c1ccc2c(c1)OC(F)(F)O2` [Compound 76, 1-{[1-(4-chloro-3-fluorophenyl)-1H-1,2,4-triazol-5-yl]methyl}-3-{[1-(2,2-difluoro-2H-1,3-benzodioxol-5-yl)-1H-1,2,3,4-tetrazol-5-yl]methyl}urea]?
Answer: AC50: 460 nM; Emax: 74%

Question: What does the source list for `O=C1N(Cc2ncnn2-c2ccc(Cl)c(F)c2)CCCN1Cc1ncnn1-c1ccc(Cl)c(F)c1` [Compound 6, 1,3-bis({[1-(4-chloro-3-fluorophenyl)-1H-1,2,4-triazol-5-yl]methyl})-1,3-diazinan-2-one]?
Answer: AC50: 5.4 nM; Emax: 33%

Question: What does the source list for `Cc1nc(CNC(=O)NCc2ncnn2-c2ccc(C3CCC3)nc2)n(-c2ccc(Cl)c(F)c2)n1` [Compound 132, 1-{[1-(4-chloro-3-fluorophenyl)-3-methyl-1H-1,2,4-triazol-5-yl]methyl}-3-{[1-(6-cyclobutylpyridin-3-yl)-1H-1,2,4-triazol-5-yl]methyl}urea]?
Answer: AC50: 490 nM; Emax: 64%

Question: For `Cc1nc(CNC(=O)NCc2ncnn2Cc2ccccc2)n(-c2ccc(Cl)c(F)c2)n1` [Compound 18, 1-[(1-benzyl-1H-1,2,4-triazol-5-yl)methyl]-3-{[1-(4-chloro-3-fluorophenyl)-3-methyl-1H-1,2,4-triazol-5-yl]methyl}urea], which AC50 is on record?
Answer: 37 nM

Question: What about the Emax of the same compound?
Answer: 85%

Question: With `O=C1N(Cc2nnnn2-c2ccc(Cl)c(F)c2)CCCN1Cc1nnnn1-c1ccc(Cl)c(F)c1` [Compound 4, 1,3-bis({[1-(4-chloro-3-fluorophenyl)-1H-1,2,3,4-tetrazol-5-yl]methyl})-1,3-diazinan-2-one] as the compound, how does the AC50 read?
Answer: 1200 nM

Question: And the Emax?
Answer: 80%

Question: For `O=C(NCc1ncnn1-c1ccc(Cl)c(F)c1)NCc1ncnn1-c1ccc(Cl)c(F)c1` [Compound 66, 1,3-bis({[1-(4-chloro-3-fluorophenyl)-1H-1,2,4-triazol-5-yl]methyl})urea], which AC50 is on record?
Answer: 13 nM

Question: And the Emax?
Answer: 41%

Question: For `O=C(NCc1ncnn1-c1ccc2cccnc2c1)NCc1nc(C2CC2)nn1-c1ccc(Cl)c(F)c1` [Compound 83, 1-{[1-(4-chloro-3-fluorophenyl)-3-cyclopropyl-1H-1,2,4-triazol-5-yl]methyl}-3-{[1-(quinolin-7-yl)-1H-1,2,4-triazol-5-yl]methyl}urea], which AC50 is on record?
Answer: 72 nM

Question: And the Emax?
Answer: 83%

Question: For `Cc1ccc(-n2nnnc2CNC(=O)NCc2nnnn2C2CCCCC2)cc1C` [Compound 72, 1-[(1-cyclohexyl-1H-1,2,3,4-tetrazol-5-yl)methyl]-3-{[1-(3,4-dimethylphenyl)-1H-1,2,3,4-tetrazol-5-yl]methyl}urea], which AC50 is on record?
Answer: 1800 nM

Question: And the Emax?
Answer: 68%

Question: What does the source list for `Cc1nc(CNC(=O)NCc2ncnn2-c2ccc3ccncc3c2)n(-c2ccc(Cl)c(F)c2)n1` [Compound 39, 3-{[1-(4-chloro-3-fluorophenyl)-3-methyl-1H-1,2,4-triazol-5-yl]methyl}-1-{[1-(isoquinolin-7-yl)-1H-1,2,4-triazol-5-yl]methyl}urea]?
Answer: AC50: 51 nM; Emax: 63%
